Test results taken from paper PMC6522510 (Nature Communications, 2019).

What was measured:
Design in all cases: species or system AML cell lines (8); Primary HTS, single concentration about 10 uM, Cell Titer Glo viability; log10 luminescence, per cent inhibition relative to cycloheximide control
Conditions in all cases: 72 h, relative to cycloheximide control, log10 luminescence; inhibitor
[1] = tested on: CHRF288-11
[2] = tested on: CMK
[3] = tested on: CMS
[4] = tested on: M07e
[5] = tested on: ML-2
[6] = tested on: MOLM-13
[7] = tested on: MV4-11
[8] = tested on: U937

Row | Structure (SMILES) | CHRF288-11 %inh [1] | CMK %inh [2] | CMS %inh [3] | M07e %inh [4] | ML-2 %inh [5] | MOLM-13 %inh [6] | MV4-11 %inh [7] | U937 %inh [8]
1 | CC1(OC(=O)C2CCCC2)C(=O)C=C2C=C(c3ccsc3)OC=C2C1=O (stereo not drawn) [SJ000580213-1] | 1.734% | 0.9758% | 3.861% | -2.766% | -0.1394% | 3.751% | 0.3204% | 2.696%
2 | CC1(OC(=O)c2cccs2)C(=O)C=C2C=C3CCCN3C=C2C1=O (stereo not drawn) [SJ000580493-1] | 4.124% | 4.862% | 2.99% | 2.009% | -0.6831% | -0.7413% | 2.091% | 1.415%
3 | COc1ccc(O)c(C(=O)c2ccc(C(=O)O[C@@H]3CCCNC[C@H]3NC(=O)c3ccncc3)cc2)c1F [SJ000580951-1] | 109.9% | 131.3% | 13.47% | 15.86% | 61.64% | 81.23% | 68.34% | 74.66%
4 | Cn1cc(C2=C(c3cn(CCCCN)c4ccccc34)C(=O)NC2=O)c2ccccc21 [SJ000580952-1] | 13.76% | 13.68% | 1.981% | -0.5312% | 4.061% | 4.295% | 8.937% | 11.79%
5 | CC(=O)N[C@@H](Cc1ccc(OP(=O)(O)O)cc1)C(=O)N[C@H]1CCC(=O)N2CCC[C@@H](C(=O)NC3CCc4ccccc43)N2C1=O (stereo partly drawn) [SJ000580953-1] | 3.338% | 1.012% | -2.328% | -2.209% | 0.02578% | 0.9252% | -1.841% | -1.364%
6 | O=C1NC(=NCCc2ccc(F)cc2)S/C1=C\c1ccc2ncccc2c1 [SJ000580954-1] | -1.783% | 4.249% | -3.568% | -2.647% | 0.5359% | 4.197% | -0.3593% | 1.346%
7 | CC(C)c1[nH]nc2c1N=C(c1ccccc1Cl)c1cc([N+](=O)[O-])ccc1N2 [SJ000580955-1] | 1.018% | 2.501% | -2.316% | 0.02064% | -0.2118% | 0.5223% | 1.567% | -1.286%
8 | O=C1NC(=NCCc2cccc(Cl)c2)S/C1=C\c1ccc2ncccc2c1 [SJ000580956-1] | 2.333% | 32.59% | 5.008% | 0.9407% | 10.56% | 9.124% | 2.972% | 20%
9 | C[C@@H](Cn1ncnn1)Nc1ncc2cc(Oc3ccc(F)cc3F)c(=O)n(C)c2n1 [SJ000580957-1] | 0.5625% | 6.727% | 0.2461% | 0.2176% | 0.7836% | 1.122% | -1.139% | 0.5561%
10 | Cn1c(=O)c(Cc2ccccc2F)cc2cnc(NC3CCOCC3)nc21 [SJ000580958-1] | 0.1529% | 5.964% | 0.1397% | 0.7689% | 0.5571% | 5.832% | 6.415% | 8.088%
11 | O=C1NC(=Nc2ccccc2)S/C1=C\c1ccc2ncccc2c1 [SJ000580960-1] | -1.26% | 5.474% | -0.1285% | -2.396% | 0.4587% | 1.819% | 2.663% | 2.19%
12 | O=c1c(Oc2ccc(F)cc2F)cc2cnc(NC3CCOCC3)nc2n1C1CCS(=O)(=O)CC1 [SJ000580961-1] | -4.195% | 4.971% | -0.4155% | -1.798% | 0.6064% | 0.9477% | 0.879% | 4.388%
13 | O=c1c(Oc2ccc(F)cc2F)cc2cnc(NC3CCOCC3)nc2n1CCCO [SJ000580962-1] | 3.259% | 6.717% | 2.142% | -0.6973% | 1.08% | 0.8881% | 3.176% | 2.637%
14 | Cn1cc(C2=C(c3c4n(c5ccccc35)CCCC4)C(=O)NC2=O)c2ccccc21 [SJ000580963-1] | 3.717% | 59.12% | 9.345% | 29.09% | 20.63% | 2.901% | 8.237% | 27.07%
15 | Cn1c(=O)c(Oc2ccc(F)cc2F)cc2cnc(NCCS(C)(=O)=O)nc21 [SJ000580964-1] | -0.5727% | 2.942% | -1.101% | -0.966% | -0.4027% | 0.541% | 3.561% | 5.046%
16 | Cn1cc(C2=C(c3cccc(Br)c3)C(=O)NC2=O)c2ccccc21 [SJ000580965-1] | 0.5807% | 8.568% | 0.1878% | 3.983% | -0.4526% | 4.067% | 8.448% | 10.11%
17 | Cc1c(C2=C(c3cn(C)c4ccccc34)C(=O)NC2=O)c2ccccc2n1C [SJ000580966-1] | 4.622% | 42.24% | -2.63% | 4.858% | 15.84% | 2.992% | -0.1129% | 14.47%
18 | Cn1cc(C2=C(c3cn(C)c4ccc(N)cc34)C(=O)NC2=O)c2ccccc21 [SJ000580967-1] | 11.3% | 43.44% | 2.341% | 2.999% | 0.6002% | 8.368% | 0.6883% | 7.089%
19 | C[C@H](O)CNc1cc(-c2[nH]c3cccnc3c2-c2ccc(F)cc2)ccn1 [SJ000580968-1] | -0.7944% | 8.696% | -1.462% | -0.9304% | -2.119% | 2.412% | 1.217% | 2.723%
20 | O=C1NC(=NCCc2ccc(Cl)cc2)S/C1=C\c1ccc2ncccc2c1 [SJ000580969-1] | 2.273% | 0.9453% | 0.8596% | -1.208% | -0.5014% | 1.832% | 1.31% | -0.9947%
21 | Cn1cc(C2=C(c3cn(C)c4cc(C(=O)O)ccc34)C(=O)NC2=O)c2ccccc21 [SJ000580970-1] | 12.22% | 35.03% | -3.422% | -3.399% | -3.521% | 4.437% | 2.908% | -0.7361%
22 | Cn1c(=O)c(Oc2ccc(F)cc2F)cc2cnc(NC(C)(C)CO)nc21 [SJ000580971-1] | 4.115% | 4.061% | -1.762% | 0.06396% | -1.151% | 3.693% | 3.201% | 1.382%
23 | Cn1c(=O)c(Oc2ccc(F)cc2)cc2cnc(NC3CCOCC3)nc21 [SJ000580972-1] | 0.05441% | 4.681% | 3.35% | 1.712% | -0.6256% | -0.3408% | -1.036% | 2.684%
24 | Nc1c(C(=O)c2cccc(C#CCN3CCOCC3)c2)cnn1-c1ccc(F)cc1 [SJ000580973-1] | 3.718% | 37.5% | 0.1973% | 5.913% | 0.4746% | 2.598% | 1.084% | 6.28%
